From article PMC3444501, “Therapeutic Effects of Astragaloside IV on Myocardial Injuries: Multi-Target Identification and Network Analysis” (PLoS ONE, 2012)

Assays:
[1] = target: angiotensin-converting enzyme (ACE) (Homo sapiens, UniProt P12821); assay: ACE activity of HUVECs (hippuric acid release from HHL) after 20-min incubation with AGS-IV; format: cell-based
calcineurin (CN) = system: T1, calcineurin (CN); assay: calcineurin activity kit (RII phosphopeptide, malachite green) in rat VSMCs after 24-h pretreatment; format: cell-based
T1 construct: gene Ppp3ca; with calcineurin B (CnB, regulatory subunit)

angiotensin-converting enzyme (ACE), sequence (P12821 30-1306): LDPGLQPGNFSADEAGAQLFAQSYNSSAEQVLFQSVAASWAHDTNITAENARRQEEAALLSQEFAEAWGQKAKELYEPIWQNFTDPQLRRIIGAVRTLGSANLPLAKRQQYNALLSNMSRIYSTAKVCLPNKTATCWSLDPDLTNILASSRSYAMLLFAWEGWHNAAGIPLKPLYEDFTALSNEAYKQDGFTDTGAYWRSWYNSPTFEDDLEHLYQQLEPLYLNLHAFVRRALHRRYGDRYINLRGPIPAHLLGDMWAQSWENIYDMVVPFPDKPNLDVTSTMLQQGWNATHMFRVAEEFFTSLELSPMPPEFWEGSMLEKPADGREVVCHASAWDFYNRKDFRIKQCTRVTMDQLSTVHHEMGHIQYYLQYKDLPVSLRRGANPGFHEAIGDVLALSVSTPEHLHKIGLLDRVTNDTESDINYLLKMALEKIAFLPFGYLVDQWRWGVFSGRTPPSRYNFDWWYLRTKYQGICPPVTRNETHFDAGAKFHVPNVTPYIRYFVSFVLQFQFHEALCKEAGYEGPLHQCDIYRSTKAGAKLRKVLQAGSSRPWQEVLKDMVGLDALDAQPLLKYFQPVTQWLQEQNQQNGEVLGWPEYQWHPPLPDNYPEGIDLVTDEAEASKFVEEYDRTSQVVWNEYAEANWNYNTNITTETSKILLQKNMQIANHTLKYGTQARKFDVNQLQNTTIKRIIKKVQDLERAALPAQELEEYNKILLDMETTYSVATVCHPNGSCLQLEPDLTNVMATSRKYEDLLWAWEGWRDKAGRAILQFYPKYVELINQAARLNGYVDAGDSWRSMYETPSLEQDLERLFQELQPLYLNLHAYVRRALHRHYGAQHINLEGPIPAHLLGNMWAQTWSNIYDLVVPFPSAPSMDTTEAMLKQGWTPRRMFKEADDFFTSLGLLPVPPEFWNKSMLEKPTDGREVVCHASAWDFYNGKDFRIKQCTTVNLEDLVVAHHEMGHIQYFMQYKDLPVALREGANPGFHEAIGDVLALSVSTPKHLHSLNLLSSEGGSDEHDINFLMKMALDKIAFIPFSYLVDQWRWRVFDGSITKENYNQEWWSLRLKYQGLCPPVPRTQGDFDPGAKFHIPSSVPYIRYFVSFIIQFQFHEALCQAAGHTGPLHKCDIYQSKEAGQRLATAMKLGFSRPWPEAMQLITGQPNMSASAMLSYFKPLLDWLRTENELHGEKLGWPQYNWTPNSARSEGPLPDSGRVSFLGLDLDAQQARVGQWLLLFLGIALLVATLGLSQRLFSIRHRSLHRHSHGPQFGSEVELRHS

What does the source list for CC(C)(O)[C@@H]1CC[C@](C)([C@H]2[C@@H](O)C[C@@]3(C)[C@@H]4C[C@H](O[C@@H]5O[C@H](CO)[C@@H](O)[C@H](O)[C@H]5O)[C@H]5C(C)(C)[C@@H](O[C@@H]6OC[C@@H](O)[C@H](O)[C@H]6O)CC[C@@]56C[C@@]46CC[C@]23C)O1 [AGS-IV, Astragaloside IV]?
IC50 [1]: 268 nM; IC50 (calcineurin (CN)): 403 nM
